Test results published in ChEMBL document CHEMBL1201862, “PubChem BioAssay data set” (2004).
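A five-concentration, 48-hour dose response in 96-well plates underlies each endpoint, interpolated linearly between surrounding concentrations. Abbreviation: GI50, concentration required for 50% inhibition of growth.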 Activity calls are given as the source filed them. Cut-off read from the data, not from the text of the source: active = GI50 up to about 1.1 µM and inactive = higher.

What was measured:
Assay in all cases: NCI tumour cell line growth inhibition, 48 h
786-0 = tested on: 786-0
A498 = tested on: A498
BT-549 = tested on: BT-549
COLO 205 = tested on: COLO 205
DU-145 = tested on: DU-145
HCC 2998 = tested on: HCC 2998
HL-60 = tested on: HL-60
HT-29 = tested on: HT-29
K562 = tested on: K562
M14 = tested on: M14
MDA-MB-435 = tested on: MDA-MB-435
OVCAR-3 = tested on: OVCAR-3
OVCAR-5 = tested on: OVCAR-5
PC-3 = tested on: PC-3
RPMI-8226 = tested on: RPMI-8226
SF-295 = tested on: SF-295
SNB-19 = tested on: SNB-19
UACC-257 = tested on: UACC-257
UO-31 = tested on: UO-31

Measured: GI50

Nc1nc(Cl)nc(NCc2ccccc2)n1
inactive: 786-0 > 100 µM | A498 > 100 µM | BT-549 > 100 µM | COLO 205 > 100 µM | DU-145 > 100 µM | HCC 2998 > 100 µM | HL-60 48 µM | HT-29 > 100 µM | K562 > 100 µM | M14 > 100 µM | MDA-MB-435 > 100 µM | OVCAR-3 > 100 µM | OVCAR-5 > 100 µM | PC-3 > 100 µM | RPMI-8226 > 100 µM | SF-295 > 100 µM | SNB-19 > 100 µM | UACC-257 > 100 µM

Cn1cnc2c(sc3nc4ccccc4n32)c1=N
inactive: 786-0 > 100 µM | A498 > 100 µM | BT-549 > 100 µM | COLO 205 > 100 µM | DU-145 > 100 µM | HCC 2998 17.6 µM | HL-60 > 100 µM | HT-29 > 100 µM | M14 > 100 µM | MDA-MB-435 > 100 µM | OVCAR-3 > 100 µM | OVCAR-5 > 100 µM | PC-3 > 100 µM | RPMI-8226 > 100 µM | SF-295 68.1 µM | SNB-19 > 100 µM | UACC-257 > 100 µM | UO-31 > 100 µM

COC(=O)c1ccc(Nc2nc3[nH]cnc3c(=O)[nH]2)cc1
inactive: 786-0 > 100 µM | A498 > 100 µM | BT-549 > 100 µM | COLO 205 > 100 µM | DU-145 > 100 µM | HCC 2998 > 100 µM | HL-60 > 100 µM | HT-29 58.7 µM | M14 59.2 µM | MDA-MB-435 51.9 µM | OVCAR-3 54.6 µM | OVCAR-5 > 100 µM | PC-3 > 100 µM | RPMI-8226 47.5 µM | SF-295 > 100 µM | SNB-19 > 100 µM | UACC-257 > 100 µM

CC(=O)c1cc(S(=O)(=O)c2ccc(O)c(C(C)=O)c2)ccc1O
inactive: 786-0 98.2 µM | A498 64.4 µM | BT-549 23.5 µM | COLO 205 > 100 µM | DU-145 > 100 µM | HCC 2998 58.2 µM | HT-29 > 100 µM | K562 79.4 µM | M14 67.9 µM | MDA-MB-435 51.3 µM | OVCAR-3 > 100 µM | OVCAR-5 > 100 µM | PC-3 75.5 µM | RPMI-8226 44.4 µM | SF-295 36.5 µM | SNB-19 68.5 µM | UACC-257 > 100 µM | UO-31 28.4 µM

CN(C)CCN1C(=O)N(CCN(C)C)c2c3cc(O)ccc3nc3c([N+](=O)[O-])ccc1c23
inactive: 786-0 6.62 µM | A498 15.7 µM | BT-549 19.8 µM | COLO 205 10.4 µM | DU-145 10.7 µM | HCC 2998 8.73 µM | HT-29 6.08 µM | K562 4.57 µM | MDA-MB-435 14.8 µM | PC-3 8.63 µM | RPMI-8226 14.2 µM | SNB-19 6.05 µM | UACC-257 15.3 µM | UO-31 16.7 µM

COC(=O)[C@H](CNC(=O)/C=C/c1ccc(OC(C)=O)c(OC(C)=O)c1)NC(=O)/C=C/c1ccc(OC(C)=O)c(OC(C)=O)c1
inactive: 786-0 > 100 µM | A498 > 100 µM | BT-549 > 100 µM | COLO 205 > 100 µM | DU-145 > 100 µM | HCC 2998 > 100 µM | HL-60 > 100 µM | HT-29 > 100 µM | K562 > 100 µM | M14 > 100 µM | MDA-MB-435 > 100 µM | OVCAR-3 > 100 µM | OVCAR-5 > 100 µM | PC-3 > 100 µM | RPMI-8226 > 100 µM | SNB-19 > 100 µM | UACC-257 > 100 µM

O=C1CC(NC(=O)C(F)(F)F)c2c(Br)sc(N3CCC(c4ccccc4)CC3)c21 (stereo unspecified)
inactive: 786-0 20.8 µM | A498 > 100 µM | BT-549 27.7 µM | COLO 205 > 100 µM | DU-145 22.2 µM | HCC 2998 > 100 µM | HL-60 9.44 µM | HT-29 56.5 µM | K562 5.27 µM | M14 > 100 µM | MDA-MB-435 > 100 µM | OVCAR-3 6.25 µM | OVCAR-5 > 100 µM | PC-3 25.6 µM | SF-295 4.48 µM | SNB-19 20.8 µM | UACC-257 13.4 µM | UO-31 8.77 µM

CCc1cc(O)c(Cl)c(C)c1Cl
inactive: 786-0 17.1 µM | A498 13 µM | BT-549 17.5 µM | COLO 205 21.4 µM | DU-145 16.7 µM | HCC 2998 15.2 µM | HL-60 33.7 µM | HT-29 19.2 µM | M14 18.6 µM | MDA-MB-435 16.4 µM | OVCAR-3 18.2 µM | OVCAR-5 20.6 µM | PC-3 19.5 µM | RPMI-8226 13.8 µM | SF-295 20 µM | SNB-19 30.3 µM | UACC-257 17.2 µM | UO-31 19.1 µM

O=C(O)Cn1ncn(NC(=O)Cc2ccccc2)c1=S
inactive: 786-0 > 10 µM | A498 > 10 µM | BT-549 > 10 µM | COLO 205 > 10 µM | DU-145 > 10 µM | HCC 2998 > 10 µM | HT-29 > 10 µM | K562 > 10 µM | M14 > 10 µM | MDA-MB-435 > 10 µM | OVCAR-3 > 10 µM | OVCAR-5 > 10 µM | PC-3 > 10 µM | RPMI-8226 > 10 µM | SF-295 > 10 µM | SNB-19 > 10 µM | UACC-257 > 10 µM | UO-31 > 10 µM

O=C(NCCC1CN(S(=O)(=O)C(F)(F)F)c2ccccc21)OCc1ccccc1 (stereo unspecified)
inactive: 786-0 > 100 µM | A498 > 100 µM | BT-549 > 100 µM | COLO 205 > 100 µM | DU-145 > 100 µM | HCC 2998 > 100 µM | HT-29 > 100 µM | K562 66.1 µM | M14 > 100 µM | MDA-MB-435 > 100 µM | OVCAR-3 > 100 µM | OVCAR-5 > 100 µM | PC-3 > 100 µM | RPMI-8226 > 100 µM | SF-295 > 100 µM | SNB-19 > 100 µM | UACC-257 > 100 µM | UO-31 > 100 µM

CC1=CCC(=O)[C@]2(C)C(CC(=O)O)[C@]3(C)C4=C(C)C(c5ccoc5)C[C@@H]4O[C@@H]3[C@H](O)[C@@H]12 (stereo partly specified)
inactive: 786-0 > 100 µM | A498 > 100 µM | BT-549 > 100 µM | COLO 205 > 100 µM | DU-145 > 100 µM | HCC 2998 > 100 µM | HL-60 > 100 µM | M14 > 100 µM | MDA-MB-435 > 100 µM | OVCAR-3 > 100 µM | OVCAR-5 > 100 µM | PC-3 > 100 µM | RPMI-8226 > 100 µM | SF-295 > 100 µM | SNB-19 > 100 µM | UACC-257 > 100 µM | UO-31 > 100 µM
